Laboratory results taken from US11813332B2, “Photosensitizer-peptide conjugate comprising degradable linker, and composition for photodynamic diagnosis or treatment comprising same” (NATIONAL CANCER CENTER, priority 2016, dated 2023).
Residues, ends and D or L forms follow the SMILES beside them. *: point of attachment. X1 = C=Cc1c(C)c2cc3nc(c(C)c4nc(cc5[nH]c(cc1[nH]2)c(C)c5CC)C(C)=C4C(=O)O)[C@@H](CCC(=O)*)[C@@H]3C

How the values were obtained:
HCC70 cells [1] = experiment: Real-time observation of fluorescence quenching and recovery without washing (live cell imaging); type: cell-based, human; details: no washing, images over 4 hours
Experimental: An experiment was conducted to verify whether a C-EGFR conjugate of the present invention in which fluorescence signal generation has been quenched from outside the target cell strongly generates fluorescence after the absorption of the C-EGFR conjugate into target cells. EGFR-overexpressing HCC70 cells were treated with the C-EGFR conjugate and free photosensitizer (Ce4), and then fluorescence images were obtained at regular time intervals without washing. The detailed method is provided as follows.
The existing medium was then replaced with 0.5 ml of fresh medium including the conjugate and the free photosensitizer. Thereafter, each of the near infrared light fluorescence images (λEx. 640±15 nm, λEm. 690±25 nm) were obtained at intervals of 15 minutes for 4 hours using the Live Cell Imaging System (Axio Observer Z1, Carl Zeiss, Germany) without washing the cells.

MDA-MB-468 cells [2] = experiment: Cell absorption and fluorescence activity, confocal laser microscope; type: cell-based, human; details: 2 μM
Experimental: (§1) Thereafter, the existing medium was replaced with 200 μl of a fresh medium in which 2 μM the conjugate was dissolved, and the cells were cultured for 30 minutes, 1 hour, and 4 hours, respectively.
L-EGFR conjugate was treated at a concentration of 2 μM and was cultured for 4 hours, followed by washing three times.

[3] = Singlet oxygen generation (SOSG) under 670 nm laser after DTT treatment; details: for Increase of singlet oxygen generation: 5 mM DTT, 4 hours, 670 nm laser 50 mW/cm^2; for Generation of singlet oxygen in the quenched state: DTT not treated or 2 μM DTT
Experimental: Singlet oxygen generation (SOG) was measured by the following method. The C-EGFR conjugate thus obtained was dissolved in PBS to be 2 μM, and then DTT-treated samples were mixed with 2 μM and 5 mM DTT, respectively, and the same amount of PBS was mixed in the buffer-treated group. The mixed solution (200 μl) was cultured at 37° C. for 4 hours. Subsequently, oxygen-saturated PBS including concentrated singlet oxygen sensor green (SOSG) was mixed and the final SOSG concentration was adjusted to 5 μM. Fluorescence intensity change of the SOSG was periodically measured using a 670 nm continuous wavelength laser device during the light irradiation (light irradiation dose: 50 mW/cm^2) of the sample.
In addition, in order to confirm the generation of singlet oxygen (SOG), the same method as in Example 2 was performed and analyzed.

[4] = Fluorescence recovery by reducing agent (DTT) treatment; details: 5 mM DTT; for Increase of fluorescence intensity by DTT treatment: 4 hours, conjugate 2 μM in PBS, λEx 400 nm, λEm 665 nm
Experimental: The increase of fluorescence and reactive oxygen generation by reducing agent treatment was analyzed.
In the dithiothreitol (DTT) treatment sample, which is a reducing agent, 2 μM of a conjugate was mixed with 2 μM and 5 mM DTT, and the same amount of phosphate-buffered saline (PBS) was added to the buffer-treated group. The fluorescent intensity of the mixed solution (200 μl) was measured at intervals of 30 minutes for 4 hours (λEx. 400 nm, λEm. 665 nm).
Fluorescence recovery of the conjugate thus obtained by the reaction in response to a reducing agent present in a high concentration in cancer cells was performed and analyzed in the same manner as in Example 2. On the other hand, a sample prepared by dilution was put into a multifunctional microplate reader to obtain fluorescence spectrum (λEx. 400 nm, λEm. 620˜850 nm) results.
Meanwhile, in order to analyze the reactivity of the reducing agent/enzyme complex reaction type Ce4-CRRCW conjugate to the reducing agent, the conjugate was treated with reducing agents DTT 2 μM and 5 mM for 6 hours and put into a multifunctional microplate reader to obtain the fluorescence spectrum (λEx. 400 nm, λEm. 620˜850 nm) results. In order to analyze the reactivity to the enzyme, the conjugate was treated with cathepsins B, S, L, and S, or cathepsin B pretreated with cathepsin inhibitor E64 for 6 hours and put into a multifunctional microplate reader to obtain the fluorescence spectrum (λEx. 400 nm, λEm. 620˜850 nm) results. In order to analyze the reducing agent/enzyme complex reaction, 5 mM DTT and cathepsin B enzyme were treated together for 6 hours and put into a multifunctional microplate reader to obtain the fluorescence spectrum (λEx. 400 nm, λEm. 620˜850 nm) results.

MDA-MB-231 cells = experiment: Cell absorption and fluorescence activity, confocal laser microscope; type: cell-based, human; details: 2 μM
Experimental: as §1

PCA-SMC cells [5] = experiment: as above; type: cell-based, human; details: 2 μM, 4 hours
Experimental: as §1

[6] = 2 μM, PBS including 10% FBS, room temperature, 4 hours
Experimental: The L-EGFR conjugate of the present invention was mixed with PBS including 10% […], fetal bovine serum (FBS, Gibco, USA), respectively, and cultured, and the stability in the serum was evaluated. The final concentration of the conjugate in solution was adjusted to 2 μM. The solution was allowed to react at room temperature for 4 hours and then put in a multifunctional microplate reader (Safire 2, Tecan, Switzerland) to obtain a fluorescence spectrum (λEx. 400 nm) result.
The Ce4-RRW conjugate of the present invention was mixed with PBS including 10% of FBS and cultured to evaluate the stability in serum. The final concentration of the conjugate in solution was adjusted to 2 μM. The solution was allowed to react at room temperature for 4 hours and then put in a multifunctional microplate reader to obtain a fluorescence spectrum (λEx. 610 nm, λEm. 620˜850 nm) result.

PCA-SMC cells [7] = experiment: Photodynamic therapy efficacy, CCK-8 assay after 670 nm laser; type: cell-based, human; details: 10 μM, 4 h treatment, washed
Experimental: In order to evaluate the efficacy of photodynamic therapy, PCA-SMC cells were put in a 1×10^3/well and MDA-MB-231 cells and MDA-MB-468 cells were put as much as 1×10^4/well in a 96-well plate, respectively, and were cultured for 24 hours to allow the cells to be adhered well. L-EGFR conjugates were prepared at concentrations of 0.1 μM, 0.5 μM, 1 μM, 2 μM, 5 μM and 10 μM, respectively, treated with cells, and then cultured for 4 hours. Thereafter, the conjugate that had not been absorbed into cells was washed and removed, and then irradiated with a 670 nm laser at an irradiation dose density of 50 mW/cm^2 for 6 minutes and 40 seconds. Thereafter, after further culturing in an incubator until the next day, the cytotoxicity was assessed by CCK-8 assay.

MDA-MB-468 cells [8] = details: 0~10 μM, dark
Experimental: In the dark state without light, the L-EGFR conjugate of the present invention was added to MDA-MB-468 cells at a concentration of 0˜10 μM and cytotoxicity was evaluated.

trypsin enzyme = details: after 4 hours, 37° C., PBS, λEm 665 nm
Experimental: 1 nmol of each of Ce4-RRWW and Ce4-RRWWW thus obtained was prepared and dissolved in a PBS solution. The trypsin enzyme was mixed with each […] of each conjugate and fluorescence changes were observed over time at 37° C.

KB cells = details: 2 μM
Experimental: KB cells per well were put in a 4-well Lab-Tek chamber per 2×10^5, and were cultured for 24 hours to allow the cells to be absorbed well. Thereafter, the existing medium was replaced with 500 μl of fresh medium in which the Ce4-RRW conjugate (2 μM) was dissolved, and then the cells were cultured for 4 hours.
Finally, the cells were washed three times with the culture medium, and then a near-infrared fluorescence image (λEx. 405 nm, λEm. 625˜754 nm) was obtained using a confocal laser microscope.
Experiments were performed to determine the intracellular location of the Ce4-RRW of the present invention. In the 8-well Lab-Tek chamber, 5×10^4 KB cells were put in each well. The cells were cultured for 24 hours to allow the cells to be absorbed well, and then 2 μM Ce4-RRW was added and cultured for 4 hours, followed by washing three times. Thereafter, after replacing the existing medium with fresh medium including 100 nM LysoTracker Blue DND-22 dye, the cells were cultured for 45 minutes. Fluorescent images of the Ce4-RRW (λEx. 405 nm, λEm. 625˜754 nm) and LysoTracker (λEx. 405 nm, λEm. 411˜497 nm) were obtained for these samples using confocal microscopy.

HCC70 cells [9] = experiment: Cell absorption and fluorescence activity, confocal laser microscope; type: cell-based, human; details: 2 μM, 4 hours
Text: In the 8-well Lab-Tek chamber, 5×10^3 PCA-SMC cells and 5×10^4 HCC70 cells were put in each well.

HCC70 cells [10] = details: 0~10 μM, dark
Experimental: In the dark state without light, the C-EGFR conjugate of the present invention was treated with 0˜10 μM concentration in HCC70 cells and cytotoxicity was evaluated.

## chlorin e4 [free photosensitizer, reference compound]
HCC70 cells [1]
  Fluorescence image without washing: position of cancer cells cannot be distinguished

## C=Cc1c(C)c2cc3nc(c(C)c4[nH]c(cc5nc(cc1[nH]2)C(C)=C5CC)c(C)c4C(=O)O)[C@@H](CCC(=O)NCCOCCOCC(=O)N[C@@H](CSSC[C@H](N)C(=O)N[C@@H](Cc1ccc(O)cc1)C(=O)N[C@@H](Cc1c[nH]cn1)C(=O)N[C@@H](Cc1c[nH]c2ccccc12)C(=O)N[C@@H](Cc1ccc(O)cc1)C(=O)NCC(=O)N[C@@H](Cc1ccc(O)cc1)C(=O)N[C@H](C(=O)N1CCC[C@H]1C(=O)N[C@@H](CCC(N)=O)C(=O)N[C@@H](CC(N)=O)C(=O)N[C@H](C(=O)N[C@H](C(=O)O)[C@@H](C)CC)C(C)C)[C@@H](C)O)C(=O)O)[C@@H]3C [L-EGFR]
MDA-MB-468 cells [2]; 30 minutes
  Fluorescence signal: strong fluorescence signal on the cell surface
MDA-MB-468 cells [2]; 4 hours
  Intracellular location (LysoTracker co-staining): activated in the lysosome
[3]
  Increase of singlet oxygen generation: 2 times
  Generation of singlet oxygen in the quenched state: suppressed
[4]
  Fluorescence recovered within 5 minutes after the start of the reaction: at least 90%
  Increase of fluorescence intensity by DTT treatment: 2.5 times
MDA-MB-231 cells; 30 minutes to 4 hours
  Intracellular fluorescence signal with culture time: fluorescence intensity was increased with increasing culture time
MDA-MB-231 cells; first 30 minutes
  Intracellular fluorescence signal: fluorescence was almost not observed
PCA-SMC cells [5]
  Intracellular fluorescence signal / cell entry: did not enter the cell even after culturing for 4 hours
[6]
  Effect of serum protein on fluorescence of the conjugate: did not affect the fluorescence intensity
PCA-SMC cells [7]
  Cells alive after photodynamic therapy: at least 70%
MDA-MB-468 cells [8]
  Cytotoxicity without light irradiation: did not show cytotoxicity

## C=Cc1c(C)c2cc3nc(c(C)c4nc(cc5[nH]c(cc1[nH]2)c(C)c5CC)C(C)=C4C(=O)O)[C@@H](CCC(=O)N[C@@H](CCCNC(=N)N)C(=O)N[C@@H](CCCNC(=N)N)C(=O)N[C@@H](Cc1c[nH]c2ccccc12)C(=O)N[C@@H](Cc1c[nH]c2ccccc12)C(=O)O)[C@@H]3C [Ce4-RRWW]
Trypsin enzyme
  Increase of fluorescence versus initial fluorescence after trypsin treatment: about 1.6 times

## C=Cc1c(C)c2cc3nc(c(C)c4nc(cc5[nH]c(cc1[nH]2)c(C)c5CC)C(C)=C4C(=O)O)[C@@H](CCC(=O)N[C@@H](CCCNC(=N)N)C(=O)N[C@@H](CCCNC(=N)N)C(=O)N[C@@H](Cc1c[nH]c2ccccc12)C(=O)N[C@@H](Cc1c[nH]c2ccccc12)C(=O)N[C@@H](Cc1c[nH]c2ccccc12)C(=O)O)[C@@H]3C [Ce4-RRWWW] (X1-RRWWW-OH)
Trypsin enzyme
  Increase of fluorescence versus initial fluorescence after trypsin treatment: 4.3 times

## C=Cc1c(C)c2cc3nc(c(C)c4nc(cc5[nH]c(cc1[nH]2)c(C)c5CC)C(C)=C4C(=O)O)[C@@H](CCC(=O)N[C@@H](CCCNC(=N)N)C(=O)N[C@@H](CCCNC(=N)N)C(=O)N[C@@H](Cc1c[nH]c2ccccc12)C(=O)O)[C@@H]3C [Ce4-RRW]
[6]
  Effect of serum protein on fluorescence of the conjugate: did not affect the fluorescence
KB cells
  Intracellular fluorescence signal: strong fluorescence signal
KB cells; 4 hours
  Intracellular location (LysoTracker co-staining): located in the lysosome

## C=Cc1c(C)c2cc3nc(c(C)c4[nH]c(cc5nc(cc1[nH]2)C(C)=C5CC)c(C)c4C(=O)O)[C@@H](CCC(=O)NCCOCCOCC(=O)N[C@H]1CSSC[C@@H](C(=O)N[C@@H](Cc2ccc(O)cc2)C(=O)N[C@@H](Cc2c[nH]cn2)C(=O)N[C@@H](Cc2c[nH]c4ccccc24)C(=O)N[C@@H](Cc2ccc(O)cc2)C(=O)NCC(=O)N[C@@H](Cc2ccc(O)cc2)C(=O)N[C@H](C(=O)N2CCC[C@H]2C(=O)N[C@@H](CCC(N)=O)C(=O)N[C@@H](CC(N)=O)C(=O)N[C@H](C(=O)N[C@H](C(=O)O)[C@@H](C)CC)C(C)C)[C@@H](C)O)NC1=O)[C@@H]3C [C-EGFR]
HCC70 cells [9]
  Intracellular fluorescence signal: strong fluorescence signals
  Intracellular location (LysoTracker co-staining): migrated into the lysosomes
[3]
  Increase of singlet oxygen generation: 5 times
  Generation of singlet oxygen in the quenched state: inhibited
[4]
  Time to fluorescence recovery after the start of the reaction: ≤ 30 min
  Increase of fluorescence intensity by DTT treatment: 3.4 times
PCA-SMC cells [5]
  Intracellular fluorescence signal / cell entry: fluorescence signals were hardly exhibited
HCC70 cells [10]
  Cytotoxicity without light irradiation: did not show cytotoxicity
PCA-SMC cells [7]
  Cells alive after photodynamic therapy: at least 70%
HCC70 cells [1]
  Fluorescence image without washing: fluorescence signal generation is inhibited from outside the cell
